Laboratory results taken from paper PMC2943488 (Molecular bioSystems, 2010).

Legend:
[1] = test system: MEK–ERK signaling (p-MEK1, p-ERK1/2); test: Bio-Plex bead-based phosphoprotein assay, MEK–ERK pathway; assay type: cell-based, human
[2] = test system: primary human hepatocytes; test: Lactate dehydrogenase; assay type: cell-based
[3] = test system: Akt, p70 S6K, MEK–ERK, and p38–HSP27 signaling pathways; conditions: donor #2; 100*Cmax

## N#CC(=C(/N)Sc1ccccc1N)/C(C#N)=C(/N)Sc1ccccc1N [U0126]
[1]; donor #3, selection from panel of candidate inhibitors
  inhibition of MEK signaling in human hepatocytes: potently inhibit signaling
[2]; donor #3
  toxicity induced by inhibitor itself in human hepatocytes: minimal toxicity

## CC[C@H]1OC(=O)[C@H](C)[C@@H](O[C@H]2C[C@@](C)(OC)[C@@H](O)[C@H](C)O2)[C@H](C)[C@@H](O[C@@H]2O[C@H](C)C[C@H](N(C)C)[C@H]2O)[C@](C)(OC)C[C@@H](C)C(=O)[C@H](C)[C@@H](O)[C@]1(C)O [clarithromycin]
[1]; donor #1 and donor #2, 100*Cmax
  MEK–ERK signaling under drug treatment: sustained activation of MEK–ERK signaling

## CN(C)CCCN1c2ccccc2CCc2ccc(Cl)cc21 [clomipramine]
[3]
  activation of the four 'network gauge' signaling pathways compared to control treatments: without significant activation

## N[C@@H]1[C@H]2CN(c3nc4c(cc3F)c(=O)c(C(=O)O)cn4-c3ccc(F)cc3F)C[C@@H]12 [trovafloxacin]
[2]; drug ± three-cytokine/LPS mix, donors #1 and #2
  synergistic induction of cell death by drug/cytokine co-treatment: synergistically induced
